In brackets after ≈: the same amount, converted by molar mass.

Series [1] is described as follows: in vitro release of the drug from the tablets, USP Apparatus II. Type of series: physicochemical. As to conditions: for release rate / release mechanism: without a pH modulator. Here is the method: The in vitro release of the drug from the tablets prepared as above was determined using USP Apparatus II, paddle speed 75 rpm, at 37° C. in 900 ml of dissolution media with pH values 1.2, 1.7 and 6.8. The pH 1.2 and 1.7 media consisted of 0.1N HCl solution adjusted to the appropriate pH by the addition of sodium hydroxide. The pH 6.8 medium consisted of 0.7% sodium dodecyl sulfate in 10 mM phosphate buffer.

Series [2] can be described thus: pH-dependent solubility of the beneficial agent. Type of series: physicochemical. How it is done:
The formulation of the instant invention was prepared using 1-(3-chlorophenyl)-4-[1-(4-cyanobenzyl)-5-imidazolyl methyl]-2-piperazinone is used as the beneficial agent. The solubility of the beneficial agent decreases from about 1 g/mL at pH 1 to about 70 μg/mL at pH 7, with the solubility cliff occurring at about pH 3.5.

The term solubility denotes the dissolved amount per volume that the medium holds. Read a high solubility as a readily soluble substance. With `N#Cc1ccc(Cn2cncc2CN2CCN(c3cccc(Cl)c3)C(=O)C2)cc1` [1-(3-chlorophenyl)-4-[1-(4-cyanobenzyl)-5-imidazolylmethyl]-2-piperazinone], in series [1] (with a pH modulator, over a range of pH levels (FIG. 2)), the release rate entry is reported as “relatively similar over a range of pH levels”. The “release rate / release mechanism” value in series [1] (media pH about 2.2 to about 6.8 (FIG. 1)) was “controlled by the gel extrusion mechanism”; in series [1] (pH about 1.2 (FIG. 1)) it was “dominated by dissolution and diffusion”; in series [1] (pH about 1.7 (FIG. 1)), “both the dissolution/diffusion and gel extrusion mechanisms are repressed”. The “solubility cliff (pH at which it occurs)” value in series [2] is reported as about 3.5 pH. Moreover, the “solubility (in words)” value in series [2] (low pH levels (less than about 2)) is listed as “very soluble”; in series [2] (near neutral pH levels (greater than about 5)) it was “practically insoluble”. Further, the solubility was about 1000 mg/mL (≈ 2460 mM) in series [2] (pH 1, simulated gastric fluid) and about 0.07 mg/mL (≈ 0.172 mM) in series [2] (pH 7, aqueous buffer).

The values are drawn from patent publication US20020136744A1, “Sustained release drug dispersion delivery device” (Merck & Co., Inc., priority 1999, published 2002).
